The test system of experiment [1] is S. aureus ParC^S80F GyrA^S84L. It is filed as cell-based, Staphylococcus aureus. The settings on record: ParC^S80F/GyrA^S84L strain.
The subject of a further experiment is Escherichia coli. Put plainly: MIC against E. coli. It is filed as cell-based.

`CC(=O)O[C@H]1[C@H](C)[C@H](O)[C@H](C)[C@@H](O)[C@@H](C(C)OC(=O)C(C)(C)CC(=O)O)/C=C/C=C(/C)C(=O)Nc2c3oc4cc(N5Cc6cc(-c7ccc8c(=O)c(C(=O)O)cn(C9CC9)c8c7OC(F)F)ccc6[C@H]5C)cc(O)c4nc-3c3c4c(c(C)c(O)c3c2=O)O[C@](C)(O/C=C/[C@H](O[C@H]2C[C@@H]3OCO[C@@H]3[C@@H](C)O2)[C@H]1C)C4=O` (stereo partly shown) [Compound 5c]: the “potency compared with fluoroquinolone parent, MIC data in units of μM” value in experiment [1] is “surpassed the potency of their fluoroquinolone parents”.

In the case of `CC(=O)O[C@H]1[C@H](C)[C@H](O)[C@H](C)[C@@H](O)[C@@H](C(C)OC(=O)C(C)(C)CC(=O)O)/C=C/C=C(/C)C(=O)Nc2c3oc4cc(N5CCN(c6cc7c(cc6F)c(=O)c(C(=O)O)cn7C6CC6)CC5)cc(O)c4nc-3c3c4c(c(C)c(O)c3c2=O)O[C@](C)(O/C=C/[C@H](O[C@H]2C[C@@H]3OCO[C@@H]3[C@@H](C)O2)[C@H]1C)C4=O` (stereo partly shown) [Compound 5a], the “fold improvement in MIC compared to ciprofloxacin in units of μM” value in experiment [1] (MIC in μM) is listed as ~ 277 fold. Also, in experiment [1] (MIC in μg/mL), the “fold improvement in activity compared to ciprofloxacin” value amounted to 64 fold. As to `COc1c(N2C[C@@H]3CCCN(c4cc(O)c5nc6c7c8c9c(C)c(O)c7c(=O)c(c-6oc5c4)NC(=O)/C(C)=C\C=C\[C@H](C(C)OC(=O)C(C)(C)CC(=O)O)[C@H](O)[C@@H](C)[C@@H](O)[C@@H](C)[C@H](OC(C)=O)[C@H](C)[C@@H](O[C@H]4C[C@@H]5OCO[C@@H]5[C@@H](C)O4)/C=C/O[C@@](C)(O9)C8=O)[C@@H]3C2)c(F)cc2c(=O)c(C(=O)O)cn(C3CC3)c12` (stereo partly shown) [Compound 5e], the “potency compared with fluoroquinolone parent, MIC data in units of μM” value in experiment [1] is “surpassed the potency of their fluoroquinolone parents”.

`CC(=O)O[C@H]1[C@H](C)[C@H](O)[C@H](C)[C@@H](O)[C@@H](C(C)OC(=O)C(C)(C)CC(=O)O)/C=C/C=C(/C)C(=O)Nc2c3oc4cc(NC5(c6c(F)cc7c(=O)c(C(=O)O)cn8c7c6OC[C@@H]8C)CC5)cc(O)c4nc-3c3c4c(c(C)c(O)c3c2=O)O[C@](C)(O/C=C/[C@H](O[C@H]2C[C@@H]3OCO[C@@H]3[C@@H](C)O2)[C@H]1C)C4=O` (stereo partly shown) [Compound 5b]: the “potency compared with fluoroquinolone parent, MIC data in units of μM” value in experiment [1] is given as “surpassed the potency of their fluoroquinolone parents”. The same measure, in the same setting: to `COc1c(N2C[C@@H]3CCCN(CCCNc4cc(O)c5nc6c7c8c9c(C)c(O)c7c(=O)c(c-6oc5c4)NC(=O)/C(C)=C\C=C\[C@H](C(C)OC(=O)C(C)(C)CC(=O)O)[C@H](O)[C@@H](C)[C@@H](O)[C@@H](C)[C@H](OC(C)=O)[C@H](C)[C@@H](O[C@H]4C[C@@H]5OCO[C@@H]5[C@@H](C)O4)/C=C/O[C@@](C)(O9)C8=O)[C@@H]3C2)c(F)cc2c(=O)c(C(=O)O)cn(C3CC3)c12` (stereo partly shown) [Compound 6e] belongs “surpassed the potency of their fluoroquinolone parents”.

On to `CC(=O)O[C@H]1[C@H](C)[C@H](O)[C@H](C)[C@@H](O)[C@@H](C(C)OC(=O)C(C)(C)CC(=O)O)/C=C/C=C(/C)C(=O)NC2=CC(=O)c3c(c(O)c(C)c4c3C(=O)[C@@](C)(O/C=C/[C@H](O[C@H]3C[C@@H]5OCO[C@@H]5[C@@H](C)O3)[C@H]1C)O4)C2=O` (stereo partly shown) [Compound 1, kanglemycin A], for which the “Gram-negative activity against E. coli” value in the experiment on Escherichia coli is given as “did not show Gram-negative activity”.
